From US20250186404A1, “METHODS OF USING A (THIAZOLYL)BENZENESULFONAMIDE DERIVATIVE” (Cyteir Therapeutics, Inc., priority 2023, published 2025)
Like-named read-outs stand apart in the source and are kept apart here.

Legend:
human MCT1 = molecular target: T1, human MCT1 (Homo sapiens, UniProt P53985); assay: MCT1 Transport Inhibition Assay (TPGA uptake, LC-MS/MS); format: cell-based
T1 construct: host or cells: MDCK-II (canine) cells, transient co-transfection
T1 sequence (P53985 1-500): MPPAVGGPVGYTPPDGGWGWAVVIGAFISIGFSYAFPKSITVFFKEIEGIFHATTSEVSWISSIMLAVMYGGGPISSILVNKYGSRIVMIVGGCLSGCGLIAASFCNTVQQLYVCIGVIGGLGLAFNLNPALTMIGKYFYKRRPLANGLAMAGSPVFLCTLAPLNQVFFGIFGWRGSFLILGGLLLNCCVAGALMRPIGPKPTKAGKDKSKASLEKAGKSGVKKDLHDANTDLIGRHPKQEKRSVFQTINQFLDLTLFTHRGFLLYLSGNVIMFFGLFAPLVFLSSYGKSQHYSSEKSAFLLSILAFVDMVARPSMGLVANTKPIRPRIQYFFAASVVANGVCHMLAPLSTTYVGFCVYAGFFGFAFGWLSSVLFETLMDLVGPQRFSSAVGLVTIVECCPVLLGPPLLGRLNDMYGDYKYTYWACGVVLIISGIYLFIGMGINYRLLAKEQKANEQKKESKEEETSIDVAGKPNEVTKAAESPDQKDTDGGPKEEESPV
T1 sequence (P35613 140-385 partner limits assumed): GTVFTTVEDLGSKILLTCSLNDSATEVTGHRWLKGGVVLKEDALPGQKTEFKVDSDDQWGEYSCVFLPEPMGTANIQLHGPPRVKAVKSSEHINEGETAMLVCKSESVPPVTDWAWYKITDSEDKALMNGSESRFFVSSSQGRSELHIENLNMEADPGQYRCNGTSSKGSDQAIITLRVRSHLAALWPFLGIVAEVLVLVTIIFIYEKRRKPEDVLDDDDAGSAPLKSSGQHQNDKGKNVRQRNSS
Procedure: Inhibition of MCT1 transport after treatment with compounds of the present invention was measured in MDCK-II cells that overexpress human MCT1 by quantifying the transport of 2-Thiophene-glycoxylic acid (TPGA) into cells using LC-MS/MS.
MDCK-II cells are seeded at 60,000 cells per well in growth medium (low-glucose DMEM+10% FBS) in 96-well trans-well membrane plates, and incubated overnight (37° C., 5% CO2). Cells were co-transfected with mammalian expression constructs coding for MCT1 and CD147 at a 2:1 ratio or an empty vector control (GFP) and then incubated for 48 h (37° C., 5% CO2). Cells were washed 3 times with HBSS and cells were preincubated with inhibitors or vehicle control at room temperature in HBSS for 30 min with orbital shaking (60 rpm). HBSS was aspirated from the wells and replaced with HBSS with 25 mM Bis-Tris pH5.5+inhibitor or vehicle control+500 μM TPGA and incubated for 1 min at room temperature with orbital shaking (60 rpm). Both the apical and basolateral side of the trans-well insert were washed 4 times with ice-cold PBS. Cells were lysed with 60 μL of cell extraction solution, and the amount of TPGA in each well was quantified in triplicate by LC-MS/MS. The MCT1-mediated uptake rate was calculated using the following equation: […]
Percent inhibition for each concentration of inhibitor tested was calculated using the following equation: […]
Curves were fit to the calculated percent inhibition for each inhibitor, and the IC50 representing the concentration of inhibitor at which MCT1 is inhibited by 50% was calculated from this curve.
Canine MDCKII cells expressing human MCT1 were treated with a titration of Compound 67A, and import of the MCT1 substrate, 2-TPGA was measured by LC-MS (FIG. 1).

Human MCT2 = molecular target: T2, Human MCT2 (Homo sapiens, UniProt O60669); assay: Inhibition of 3BP import (rescue of viability) in MCT2-overexpressing INS-1 cells; format: cell-based; details: INS-1 cells over-expressing human MCT2, rescue from LC100 3BP
T2 construct: expressed in transfected cells
T2 sequence (O60669 1-478): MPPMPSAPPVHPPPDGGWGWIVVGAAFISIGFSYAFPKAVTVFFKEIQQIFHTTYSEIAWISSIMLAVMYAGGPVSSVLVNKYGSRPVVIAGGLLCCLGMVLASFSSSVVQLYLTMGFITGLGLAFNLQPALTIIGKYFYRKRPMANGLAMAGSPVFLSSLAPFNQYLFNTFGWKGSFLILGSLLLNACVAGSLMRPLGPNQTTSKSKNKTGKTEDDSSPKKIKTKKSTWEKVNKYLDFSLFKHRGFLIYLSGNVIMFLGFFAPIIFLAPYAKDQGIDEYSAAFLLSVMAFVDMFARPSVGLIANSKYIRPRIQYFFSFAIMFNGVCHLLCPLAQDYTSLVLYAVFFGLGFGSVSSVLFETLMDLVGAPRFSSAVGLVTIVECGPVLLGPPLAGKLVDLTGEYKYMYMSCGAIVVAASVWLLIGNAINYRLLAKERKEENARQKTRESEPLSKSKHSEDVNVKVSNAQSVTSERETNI
Procedure: Human MCT1-4 were stably expressed in INS-1 rat pancreatic islet B-cells, which are deficient in endogenous MCT expression. 3-Bromopyruvate (3BP), a highly reactive and cytotoxic monocarboxylate, can enter the INS-1 cells via the overexpressed MCT isoform, resulting in rapid cell death. However, prevention of 3BP transport into the cell by an MCT inhibitor can prevent 3BP-mediated cell death (FIG. 16).
INS-1 cells over-expressing an MCT paralog were treated with a titration of 3BP to determine the lowest concentration that results in 100% cell killing (LC100). The INS-1 cells were then pre-treated with a titration of Compound 67A before exposure to the LC100 concentration of 3BP specific for that MCT-over-expressing cell line, and rescue of cell viability was measured (FIG. 17).

[1] = MDCK-II cells overexpressing human MCT1, TPGA transport, read-out: BioIVT MCT1 Transporter IC50

Row | IC50 (human MCT1; Canine MDCKII cells expressing human MCT1, LC-MS, read-out: inhibits 2-TPGA import, IC50) | Compound | IC50 (human MCT1; [1]) | IC50 (Human MCT2)
1 | 134 nM | CC(C)OC(=O)Nc1ccc(-c2cnc([C@H]3CC[C@H](NC(=O)OC(C)C)CC3)s2)c(S(=O)(=O)NC(C)(C)C)c1 [Compound 67A] | 50 to 150 nM | > 33000 nM
2 |  | O=C(Nc1ccccc1C(=O)O)c1cc(S(=O)(=O)c2ccccc2)ccc1Cl [BAY8002] | 50 to 150 nM | 1000 to 10000 nM
3 |  | AZD3965 | 150 to 1000 nM | 1000 to 10000 nM
